# Like-named read-outs stand apart in the source and are kept apart here.
# Assays:
# [1] = tested on: production and secretion of NGF in mouse brain astroglial cells; experiment: Promoting activity for the production and secretion of NGF in mouse brain astroglial cells (ELISA of medium after 24 h); assay type: cell-based; details: for fold induction at 400 µM / fold induction at 200 µM: Mus musculus, 24 h; for NGF Astroglial Cell Concentration / NGF Concentration: 24 hours; for NGF Astroglial Cell Concentration: control 31.8
# Procedure: Promoting activity for the production and secretion of NGF in mouse brain astroglial cells
# The experiment was performed by inducing astroglial cells from the mouse forebrain to a culture system according to the procedures of S. Furukawa et al. which is described in Biochem. Biophys. Res. Commun., 136, 57-63 (1986).
# Forebrains of 8-days old mice were dissected out and cut into small pieces. The pieces were washed with calcium- and magnesium-free phosphate-bufferedsaline (hereinafter abbreviated as PBS), treated with 0.25% trypsin containing PBS at 37° C. for 30 minutes and triturated with a Pasteur pipet to give a suspension. Cells and cell clumps were recovered by centrifugation at 200 xg for 5 minutes. They were cultured in Dulbecco modified Eagle's medium (a product of Gibco Co. hereinafter abbreviated as DMEM) containing 10% fetal calf serum, 50 μ units/ml of penicillin, and 50 μg/ml of streptomycin, for 10 to 14 days with medium changes every 3 days. After completing confluency, the cells were dissociated by trypsin treatment and recultured in new culture flasks. This procedure was repeated further twice and more. The culture became a uniform cell cluster. The cell cluster for use in this invention can be stained not less than 97% in accordance with the PAP staining method (peroxidase/[…] staining method) using anti-human glial fibrillar acidic protein (GFAP) rabbit antiserum. The cells will hereinafter be referred to as astroglial cells.
# Astroglial cells were innoculated in 24-well plates having a well surface area of 2.1 cm^2 (a product of Falcon Co.) at a cell density of about 3×10^4 cells/well and cultured for 3 days in DMEM medium supplemented with 10% of fetal calf serum. After completing confluency about ([…]), the medium was changed to DMEM medium (0.5 ml/well) supplemented with 0.5% of bovine serum albumin (fraction V) and cultured for 3 days. The culture was further continued with medium changes every 3 days. After cells were practically synchronized in the quiscent stage, the medium was changed to 0.5 ml of the same medium and containing a prescribed concentration of test sample as illustrated in the Tables. NGF in the medium after cultivating for 24 hours was determined by the ELISA as mentioned above. Data are expressed as fold increase in NGF content over that in the absence of the test sample. The lower detection limit of the ELISA is 0.25 pg/ml and the NGF content of control medium was normally 1-10 pg/0.5 ml/well. Data are presented as the mean of four determinations. The results are illustrated in Tables 1-5.
# [2] = tested on: production and secretion of NGF in mouse L-M cells; experiment: Promoting activity for the production and secretion of NGF in mouse L-M cells (ELISA of medium after 24 h); assay type: cell-based; details: for fold induction at 400 µM / fold induction at 200 µM: Mus musculus, 24 h; for fold induction at 400 µM / NGF L-M Cell Concentration: Table 5, 0.4 mM; for fold induction at 400 µM: read-out: NGF L-M Cell Increase Ratio; for NGF L-M Cell Concentration / NGF Concentration: 24 hours; for NGF L-M Cell Concentration: control 0.87; for fold induction at 200 µM: read-out: NGF Increase Ratio; for NGF Concentration: mean of four determinations
# Procedure: Promoting activity for the production and secretion of NGF in mouse L-M cells
# The medium was cultured for 3 days at a temperature of 37° C. […] The sample of the derivative tested is contained in the medium at a prescribed concentration as illustrated in the Tables. […] Data are expressed as fold increase in NGF content of the medium over that cultivated in the absence of the derivative to be tested. […] Data are presented as the mean of four determinations. The results are illustrated in Tables 1-5.
# [3] = Table 5, 0.4 mM, fold increase over control (1.00), read-out: NGF Astroglial Cell Increase Ratio
# [4] = L-M cells, fold increase over control (1.00)
# [5] = Table 3, sample concentration 0.4 mM, fold increase over control (1.00), read-out: NGF Increase Ratio
# [6] = Table 3, sample concentration 0.4 mM, control 42.3
# [7] = Table 1, L-M cells, sample concentration 0.2 mM, fold increase over control (1.00)
# [8] = Table 1, L-M cells, sample concentration 0.2 mM, control 0.33
# [9] = Table 4, sample concentration 0.2 mM, fold increase over control, read-out: NGF Increase Ratio
# [10] = Table 4, sample concentration 0.2 mM
# [11] = Table 2, L-M cells, sample concentration 0.2 mM, fold increase over control (1.00)
# [12] = Table 2, L-M cells, sample concentration 0.2 mM, control 0.34
# [13] = Table 4, sample concentration 0.4 mM, fold increase over control, read-out: NGF Increase Ratio
# [14] = Table 4, sample concentration 0.4 mM
compound,measurement,setting,value
"O=C(CCc1ccc(O)c(O)c1)N1CCCC1 [Compound 98, N-[3-(3,4-Dihydroxyphenyl)propionyl]pyrrolidine]",fold induction at 400 µM,[1]; [3],12.8
same,NGF Astroglial Cell Concentration,"[1]; Table 5, 0.4 mM",407.0 ng/well
same,fold induction at 400 µM,[2]; [4],6.1
same,NGF L-M Cell Concentration,[2]; L-M cells,5.31 ng/well
CCCCNCCCc1ccc(O)c(O)c1 [Compound 29],fold induction at 400 µM,[1]; [5],4.26
same,NGF Concentration,[1]; [6],180.3 ng/well
same,fold induction at 200 µM,[2]; [7],8.73
same,NGF Concentration,[2]; [8],2.88 ng/well
CNCCCc1ccc(O)c(O)c1 [Compound 26],fold induction at 400 µM,[1]; [5],4.17
same,NGF Concentration,[1]; [6],176.5 ng/well
same,fold induction at 200 µM,[2]; [7],8.61
same,NGF Concentration,[2]; [8],2.84 ng/well
CCNC(=O)Cc1ccc(O)c(O)c1 [Compound 64],fold induction at 200 µM,[1]; [9],4.65
same,NGF Concentration,[1]; [10],200.8 ng/well
same,fold induction at 200 µM,[2]; [11],5.32
same,NGF Concentration,[2]; [12],1.81 ng/well
CCNC(=O)CCCc1ccc(OC(C)=O)c(OC(C)=O)c1 [Compound 79],fold induction at 400 µM,[1]; [13],4.57
same,NGF Concentration,[1]; [14],197.3 ng/well
same,fold induction at 200 µM,[2]; [11],5.35
same,NGF Concentration,[2]; [12],1.82 ng/well
CCOC(=O)CCCc1ccc(O)c(O)c1 [Compound 43],fold induction at 200 µM,[1]; [9],4.59
same,NGF Concentration,[1]; [10],198.5 ng/well
same,fold induction at 200 µM,[2]; [11],5.53
same,NGF Concentration,[2]; [12],1.88 ng/well
"CN1CCN(C(=O)CCc2ccc(O)c(O)c2)CC1 [Compound 100, N-Methyl-N'-[3-(3,4-dihydroxyphenyl)propionyl]piperazine]",fold induction at 400 µM,[1]; [3],8.2
same,NGF Astroglial Cell Concentration,"[1]; Table 5, 0.4 mM",260.8 ng/well
same,fold induction at 400 µM,[2]; [4],5
same,NGF L-M Cell Concentration,[2]; L-M cells,4.35 ng/well
"O=C(CCc1ccc(O)c(O)c1)NC12CC3CC(CC(C3)C1)C2 [Compound 96, N-Adamantyl-3,4-dihydroxyphenylpropionamide]",fold induction at 400 µM,[1]; [3],18
same,NGF Astroglial Cell Concentration,"[1]; Table 5, 0.4 mM",293.4 ng/well
same,fold induction at 400 µM,[2]; [4],5.7
same,NGF L-M Cell Concentration,[2]; L-M cells,4.96 ng/well
CC(=O)NCCCc1ccc(OC(C)=O)c(OC(C)=O)c1 [Compound 17],fold induction at 200 µM,"[1]; Table 3, sample concentration 0.2 mM, fold increase over control (1.00), read-out: NGF Increase Ratio",4.27
same,NGF Concentration,"[1]; Table 3, sample concentration 0.2 mM, control 42.3",180.6 ng/well
same,fold induction at 200 µM,[2]; [7],8.64
same,NGF Concentration,[2]; [8],2.85 ng/well
"CC(=O)NCCc1ccc(O)c(O)c1 [Compound 1, N-Acetyl-3,4-dihydroxyphenethylamine]",fold induction at 400 µM,[1]; [5],4.94
same,NGF Concentration,[1]; [6],208.8 ng/well
same,fold induction at 200 µM,[2]; [7],9.24
same,NGF Concentration,[2]; [8],3.05 ng/well
"CCCCNC(=O)CCc1ccc(O)c(O)c1 [Compound 84, N-n-Butyl-3,4-dihydroxyphenylpropionamide]",fold induction at 400 µM,[1]; [3],33.1
same,NGF Astroglial Cell Concentration,"[1]; Table 5, 0.4 mM",539.5 ng/well
same,fold induction at 400 µM,[2]; [4],6.2
same,NGF L-M Cell Concentration,[2]; L-M cells,5.39 ng/well
CC(=O)Oc1ccc(CCC(=O)N(C)C)cc1OC(C)=O [Compound 81],fold induction at 400 µM,[1]; [13],6.33
same,NGF Concentration,[1]; [14],273.5 ng/well
same,fold induction at 200 µM,[2]; [11],5.76
same,NGF Concentration,[2]; [12],1.96 ng/well
CCCCNCCc1ccc(O)c(O)c1 [Compound 21],fold induction at 400 µM,[1]; [5],4.91
same,NGF Concentration,[1]; [6],207.5 ng/well
same,fold induction at 200 µM,[2],11.5
same,NGF Concentration,[2]; [8],3.80 ng/well
CCCCNC(=O)CCc1ccc(OC(C)=O)c(OC(C)=O)c1 [Compound 83],fold induction at 400 µM,[1]; [13],8.82
same,NGF Concentration,[1]; [14],381.2 ng/well
CCCCN(C)CCc1ccc(O)c(O)c1 [Compound 32],fold induction at 400 µM,[1]; [5],4.82
same,NGF Concentration,[1]; [6],203.8 ng/well
CCCCN(C)CCc1ccc(OC(C)=O)c(OC(C)=O)c1 [Compound 33],fold induction at 400 µM,[1]; [5],4.74
same,NGF Concentration,[1]; [6],200.6 ng/well

# From patent US5232923A, “Catechol derivatives and pharmaceutical preparations containing same” (Mitsui Toatsu Chemicals, Incorporated, priority 1988, dated 1993)
